± gives the expanded uncertainty stated by the source.
Conditions: Liquid; for mass density: 298.15 K, 101.33 kPa

| mass density [kg/m3] | Normal boiling temperature [°C] | Structure (SMILES) |
| --- | --- | --- |
| 785.1 ± 5 | 78.31 ± 0.03 | CCO [ethanol] |
| 786.5 ± 5 | 64.52 ± 0.03 | CO [methanol] |
